Measurements published in patent publication US10660928B2, “Pharmaceutical composition containing combination extracts of Moutan Root Bark, Angelica Dahurica Root, bupleurum root or fractions thereof for prevention and treatment of neurodegenerative disorder” (UNIVERSITY-INDUSTRY COOPERATION GROUP OF KYUNG HEE …, priority 2014, dated 2020).

Experiments:
[1] = system: SH-SY5Y, the human neuroblastoma cell line; assay: Cell survival rate (calcein) in normal cells, cytotoxicity; format: cell-based; settings: 1 μg/ml
Procedure: Particularly, SH-SY5Y, the human neuroblastoma cell line, was inoculated in DMEM/F12 (Dulbeco's Modified Eagle's Medium & Ham's F12; Gibco, USA) supplemented with 10% FBS, followed by culture in a 37° C., 5% CO2/95% air (O2) incubator. Then, the cultured cells were transferred into a serum free medium at the density of 2.5×10^4 cells/well. […] The cells were collected and the cell survival rate was measured by using calcein. The survival rate of the cells that were increased or decreased compared with that of the normal control cells not-treated with the extract or its active component above and instead treated with DMSO was calculated and presented as percentage (%). Particularly, SH-SY5Y cells were cultured by the same manner as described in Experimental Example <1-1>. The cultured cells were transferred in a serum free medium at the density of 2.5×10^4 cells/well. […] The cells were collected and the cell survival rate was measured by using calcein. The cell survival rate that was increased or decreased compared with that of the normal control group not-treated with the extract or its active component above and instead treated with DMSO was calculated and presented as percentage (%).

Park7 (DJ-1) = assay: RT-PCR of Park7 (DJ-1) expression, atrazine-damaged cells; format: cell-based, human; settings: 1 μg/ml
Procedure: (§1) Particularly, SH-SY5Y cells were cultured by the same manner as described in Experimental Example <1-2>, and mitochondrial malfunction was induced. Then, the cells with the malfunctioned mitochondria were suspended in TRIzol (Invitrogen, USA) and total RNA was extracted therefrom according to the manufacturer's protocol. […] PCR was performed with GeneAmp PCR system 9700 (Applied Biosystem, USA) under the required optimum condition by using the synthesized cDNA as a template in the presence of the forward and reverse primers listed in Table 5 below, leading to the amplification of COX III and Park? (DJ-1) genes. The amplified PCR products were electrophoresed on 1.5% agarose gel. The relative concentration was measured by using an image densitometer (Alpha Ease FC software; Alpha Innotech, USA) under UV. The level of mRNA was standardized by comparison with the level of 18S rRNA. The normal control was not treated with the extract of the invention or the active component thereof but instead treated with DMSO alone. The negative control was treated with 50 μg/ml of atrazine alone to induce mitochondrial damage and not treated with the extract or the active component thereof. The gene expression level was investigated by the same manner as described above.

[2] = system: cytochrome c oxidase subunit III (COX III); assay: RT-PCR of COX III expression, atrazine-damaged cells; format: cell-based, human; settings: 1 μg/ml
Procedure: as §1

[3] = system: SH-SY5Y, the human neuroblastoma cell line; assay: MTT assay, atrazine-induced mitochondria complex 1 damage; format: cell-based; settings: treatment 1 μg/ml, inducer atrazine 50 μg/ml
Procedure: Particularly, SH-SY5Y, the human neuroblastoma cell line, was inoculated in DMEM/F12 (1:1, Dulbeco's Modified Eagle's Medium & Ham's F12; Gibco, USA) supplemented with 10% FBS, followed by culture in a 37° C., 5% CO2/95% air (O2) incubator. Then, the cultured cells were transferred into a serum free medium at the density of 1×10^5 cells/well. […] Sigma, USA), followed by culture for 4 hours. Then, the MTT formazan precipitate formed by survived cells was dissolved in 100 μl of 0.04 N HCl/isopropanol. OD540 was measured with an ELISA microplate reader (Molecular Devices, USA). The damage of mitochondria complex 1 was confirmed to see how the damage level was either increased or decreased, compared with the normal control group treated with DMSO without the extract or its active component. In the meantime, the negative control group was treated with 50 μg/ml of atrazine alone to induce mitochondrial damage and was not treated with the extract or its active component. Then, MTT assay was performed by the same manner as described above.

SH-SY5Y cells = assay: ATP assay, atrazine-induced loss of intracellular ATP; format: cell-based, human; settings: treatment 1 μg/ml, inducer atrazine 50 μg/ml
Procedure: Particularly, SH-SY5Y cells were cultured by the same manner as described in Experimental Example <1-2>, to which 50 μg/ml of atrazine was treated to induce malfunction of mitochondria. Then, 100 μl of the cell lysate obtained from the cells with the malfunctioned mitochondria was mixed with 100 μl of luciferin-luciferase by using ATP bioluminescent somatic cell assay kit (Sigma, USA), followed by culture at 20° C. for 10 minutes. The supernatant was obtained. Fluorescence signal was measured by using LB 9501 Lumat luminometer (Berthold, Germany). The fluorescence of the control well containing the cell free medium was used as the background. The measured values were calculated by subtracting the background, and the amount of ATP was normalized to the protein concentration. The normal control was not treated with the extract of the invention or the active component thereof but instead treated with DMSO alone. All the results were presented as % by the normal control to present the intracellular ATP level. The negative control was treated with 50 μg/ml of atrazine alone to induce mitochondrial damage and not treated with the extract or the active component thereof. The Intracellular ATP level was measured by the same manner as described above.

interleukin-6, (IL-6) = assay: RT-PCR of IL-6 mRNA, LPS-induced cells; format: cell-based, mouse; settings: BV2, treatment 1.0 μg/ml, LPS 100 ng/ml; negative control 100.00
Procedure: (§2) Particularly, BV2 cells were cultured by the same manner as described in Experimental Example <3-1>, and inflammatory response was induced. Then, RT-PCR was performed with the cells by the same manner as described in Experimental Example <1-4>, followed by quantitative analysis of the expression levels of iNOS, IL-6, and NF-kB p65/ReIA genes. The normal control was not treated with the extract of the invention or the active component thereof but treated with DMSO alone. The negative control was not treated with the extract or the active component but treated with 100 ng/ml of LPS alone to induce inflammatory response. Then, the expression of the inflammatory response marker gene was confirmed by the same manner as described above.

BV2 cells [4] = assay: DCF-DA intracellular ROS, LPS-induced cells; format: cell-based, mouse; settings: BV2, treatment 1.0 μg/ml, inducer LPS 100 ng/ml
Procedure: Particularly, BV2 cells were cultured by the same manner as described in Experimental Example <3-1>, and inflammatory response was induced. Then, the cells induced with inflammatory response were treated with 1 μM DCF-DA and 0.05 μM bisbenzimide (Hoechst 33342), followed by staining at 37° C. for 1 hour. After the staining, the fluorescence intensity of DCF-DA was measured at 485 nm/535 nm, and the fluorescence intensity of bisbenzimide was measured at 335 nm/460 nm. Based on the ratio of DCF-DA/bisbenzimide, ROS was quantified. The amount of ROS, either increased or decreased, was compared with that of the normal control not treated with the extract or the active component thereof but treated with DMSO, and the results were presented as %. The negative control was treated with 100 ng/ml of LPS alone to induce inflammatory response but not treated with the extract or the active component thereof. Then, the generation of ROS was investigated by the same manner as described above.
(§3) Particularly, BV2 cells were cultured by the same manner as described in Experimental Example <3-1>, and inflammatory response was induced. Then, 100 μl of the cell culture medium was obtained, to which 100 μl of Griess reagent comprising hydrochloric acid containing 5% sulfanilamide and 2% naphthylethylenediamine was added, followed by reaction in a dark room for 30 minutes. Upon completion of the reaction, OD540 was measured with an EISA microplate reader (Versamax, USA). The concentration of nitric oxide in the medium was calculated using the standard calibration curve of sodium nitrite. To measure the ROS concentration, the cells were treated with 1 μM DCF-DA and 0.05 μM bisbenzimide (Hoechst 33342), followed by staining at 37° C. for 1 hour. After the staining, the fluorescence intensity of DCF-DA was measured at 485 nm/535 nm, and the fluorescence intensity of bisbenzimide was measured at 335 nm/460 nm. Based on the ratio of DCF-DA/bisbenzimide, ROS was quantified. The amount of ROS, either increased or decreased, was compared with that of the normal control not treated with the extract but treated with DMSO, and the results were presented as %. The negative control was treated with 100 ng/ml of LPS alone to induce inflammatory response but not treated with the extract or the active component thereof. Then, the nitric oxide concentration reduction effect and the ROS concentration reduction effect were investigated by the same manner as described above.

BV2 cells [5] = assay: MTT assay, LPS-induced inflammatory response; format: cell-based, mouse; settings: BV2, treatment 1.0 μg/ml, inducer LPS 100 ng/ml
Procedure: Particularly, BV2 cells were cultured by the same manner as described in Experimental Example <3-1>. Then, the cultured cells were transferred into a serum free medium at the density of 1×10^5 cells/well. The cells were treated with the Bupleurum Root 90% ethanol extract prepared in Example <1-3>, saikosaponin A, saikosaponin B2, saikosaponin B4, or saikosaponin D at the concentration of 1.0 μg/ml, followed by culture for 4 hours. The cells were then treated with 100 ng/ml of lipopolysaccharide (LPS), followed by culture for 20 hours to induce inflammatory response. MTT assay was performed with the cells induced with inflammatory response by the same manner as described in Experimental Example <1-2>. The damage of mitochondria complex 1 was confirmed to see how the damage level was either increased or decreased, compared with the normal control group treated with DMSO without the extract or its active component. In the meantime, the negative control group was treated with 100 ng/ml of LPS alone to induce inflammatory response and was not treated with the extract or its active component. Then, MTT assay was performed by the same manner as described above.

[6] = system: inducible nitric oxide synthase (iNOS); assay: RT-PCR of iNOS mRNA, LPS-induced cells; format: cell-based, mouse; settings: BV2, treatment 1.0 μg/ml, LPS 100 ng/ml; negative control 100.00
Procedure: as §2

BV2 cells [7] = assay: Griess method, nitric oxide in medium of LPS-induced cells; format: cell-based, mouse; settings: BV2, treatment 1.0 μg/ml, inducer LPS 100 ng/ml
Procedure: Particularly, BV2 cells were cultured by the same manner as described in Experimental Example <3-1>, and inflammatory response was induced. Then, 100 μl of the cell culture medium was obtained, to which 100 μl of Griess reagent comprising hydrochloric acid containing 5% sulfanilamide and 2% naphthylethylenediamine was added, followed by reaction in a dark room for 30 minutes. Upon completion of the reaction, OD540 was measured with an EISA microplate reader (Versamax, USA). The concentration of nitric oxide in the medium was calculated using the standard calibration curve of sodium nitrite. The normal control was not treated with the extract or the active component thereof but treated with DMSO. The negative control was treated with 100 ng/ml of LPS alone to induce inflammatory response but not treated with the extract or the active component. Then, the nitric oxide concentration reduction effect was investigated by the same manner as described above.
as §3

NF-kB p65/ReIA = assay: RT-PCR of NF-kB p65/ReIA mRNA, LPS-induced cells; format: cell-based, mouse; settings: BV2, treatment 1.0 μg/ml, LPS 100 ng/ml; negative control 100.00
Procedure: as §2

[8] = normal SH-SY5Y cells, 4 hours, calcein

Compound | Cell survival rate (% of control) [1, 8] | Park7(DJ-1)/18S rRNA (Park7 (DJ-1); with atrazine) | Park7(DJ-1)/18S rRNA (Park7 (DJ-1); without atrazine) | COX III/18S rRNA ([2]; with atrazine) | COX III/18S rRNA ([2]; without atrazine) | MTT (% of control) [3] | Intracellular ATP content (% of control) (SH-SY5Y cells) | IL-6 mRNA (% of control) (interleukin-6, (IL-6)) | DCF-DA-ROS (% of control) (BV2 cells [4]) | MTT (% of control) (BV2 cells [5]) | iNOS mRNA (% of control) [6] | NO (BV2 cells [7]) [µM] | p65/ReIA mRNA (% of control) (NF-kB p65/ReIA) | Cell survival rate (% of control) ([1]; human, 4 h)
C[C@@]12C[C@@]3(O)O[C@@H](O1)[C@]1(COC(=O)c4ccccc4)[C@H]3C[C@@]12O[C@@H]1O[C@H](CO)[C@@H](O)[C@H](O)[C@H]1O [paeoniflorin] | 97.9 ± 7.34 % of control | 2.03 ± 0.07 | 1.05 ± 0.08 | 0.92 ± 0.08 | 1.11 ± 0.04 | 96.4 ± 7.44 % of control | 94.3 ± 6.44 % of control | – | – | – | – | – | – | –
C[C@H]1O[C@@H](O[C@H]2CC[C@@]3(C)[C@@H](CC[C@]4(C)[C@@H]3C=C[C@]35OC[C@@]6(CCC(C)(C)C[C@H]63)[C@@H](O)C[C@]54C)[C@]2(C)CO)[C@H](O)[C@@H](O[C@@H]2O[C@H](CO)[C@@H](O)[C@H](O)[C@H]2O)[C@H]1O [saikosaponin A, (3beta,4alpha,16beta)-13,28-Epoxy-16,23-dihydroxyolean-11-en-3-yl-6-deoxy-3-O-beta-D-glucopyranosyl-beta-D-galactopyranoside] | – | – | – | – | – | – | – | 18.05 ± 1.23 % of control | 198.24 ± 3.72 % of control | 91.49 ± 6.20 % of control | 14.85 ± 1.47 % of control | 10.8 ± 3.6 | 40.38 ± 1.05 % of control | –
COc1ccc(C(C)=O)c(O)c1 [Paeonol, 2′-Hydroxy-4′-methoxyacetophenone] | 102.2 ± 9.10 % of control | 0.95 ± 0.07 | 1.22 ± 0.08 | 1.07 ± 0.07 | 1.05 ± 0.03 | 101.8 ± 7.21 % of control | 101.9 ± 7.42 % of control | – | – | – | – | – | – | –
C[C@@]12CC(=O)[C@H]3C[C@]1(O)O[C@H](O2)[C@@H]3COC(=O)c1ccccc1 [paeoniflorigenone, [(2s,3as,5s,7ar,8s)-3a-hydroxy-7a-methyl-6-oxohexahydro-2,5-methano-1,3-benzodioxol-8-yl]methyl benzoate] | – | 0.45 ± 0.02 | 0.98 ± 0.08 | 0.86 ± 0.07 | 1.04 ± 0.05 | 95.5 ± 6.09 % of control | 89.1 ± 7.97 % of control | – | – | – | – | – | – | 98.9 ± 8.10 % of control
